{"source": "BigSolDB 2.1", "data": [{"smiles": "CN1CCN(c2cc3c(cc2F)c(=O)c(C(=O)O)cn3-c2ccc(F)cc2)CC1", "values": [{"measurement": "solubility (mole fraction)", "setting": "in acetone, 293.15 K", "result": 0.0052}, {"measurement": "solubility (mole fraction)", "setting": "in acetone, 295.15 K", "result": 0.0058}, {"measurement": "solubility (mole fraction)", "setting": "in acetone, 298.15 K", "result": 0.0067}, {"measurement": "solubility (mole fraction)", "setting": "in acetone, 300.15 K", "result": 0.0073}, {"measurement": "solubility (mole fraction)", "setting": "in acetone, 303.15 K", "result": 0.0081}, {"measurement": "solubility (mole fraction)", "setting": "in acetone, 305.15 K", "result": 0.0087}, {"measurement": "solubility (mole fraction)", "setting": "in acetone, 308.15 K", "result": 0.0096}, {"measurement": "solubility (mole fraction)", "setting": "in acetone, 310.15 K", "result": 0.0104}, {"measurement": "solubility (mole fraction)", "setting": "in acetone, 313.15 K", "result": 0.011}, {"measurement": "solubility (mole fraction)", "setting": "in ethanol, 293.15 K", "result": 0.0387}, {"measurement": "solubility (mole fraction)", "setting": "in ethanol, 295.15 K", "result": 0.0435}, {"measurement": "solubility (mole fraction)", "setting": "in ethanol, 298.15 K", "result": 0.0507}, {"measurement": "solubility (mole fraction)", "setting": "in ethanol, 300.15 K", "result": 0.0559}, {"measurement": "solubility (mole fraction)", "setting": "in ethanol, 303.15 K", "result": 0.0636}, {"measurement": "solubility (mole fraction)", "setting": "in ethanol, 305.15 K", "result": 0.0683}, {"measurement": "solubility (mole fraction)", "setting": "in ethanol, 308.15 K", "result": 0.0754}, {"measurement": "solubility (mole fraction)", "setting": "in ethanol, 310.15 K", "result": 0.0795}, {"measurement": "solubility (mole fraction)", "setting": "in ethanol, 313.15 K", "result": 0.0856}, {"measurement": "solubility (mole fraction)", "setting": "in methanol, 293.15 K", "result": 0.0064}, {"measurement": "solubility (mole fraction)", "setting": "in methanol, 295.15 K", "result": 0.0068}, {"measurement": "solubility (mole fraction)", "setting": "in methanol, 298.15 K", "result": 0.0073}, {"measurement": "solubility (mole fraction)", "setting": "in methanol, 300.15 K", "result": 0.0077}, {"measurement": "solubility (mole fraction)", "setting": "in methanol, 303.15 K", "result": 0.0084}, {"measurement": "solubility (mole fraction)", "setting": "in methanol, 305.15 K", "result": 0.0088}, {"measurement": "solubility (mole fraction)", "setting": "in methanol, 308.15 K", "result": 0.0095}, {"measurement": "solubility (mole fraction)", "setting": "in methanol, 310.15 K", "result": 0.0099}, {"measurement": "solubility (mole fraction)", "setting": "in methanol, 313.15 K", "result": 0.0104}]}]}
